{
  "source": "patent US20100086931A1",
  "about": "“METHOD FOR ASSAYING ACTION OF ANTITUMOR AGENT USING DECREASE IN GENE EXPRESSION LEVEL AS INDEX” (Eisai R&D Management Co., Ltd., priority 2007, published 2010)",
  "tested_on": "peripheral blood mononuclear cells (PBMC)",
  "experiment": "Microarray analysis (Human Genome U133 plus 2.0 array) of mRNA expression in PBMC treated with compound A",
  "assay_type": "cell-based",
  "conditions": "10 nM, ratio to control",
  "from_the_text": "Since it is not easy to obtain a cancer tissue clinically, the measurement of the marker in hemocytes readily obtainable in peripheral blood would be more useful. Specifically blood was taken from a normal individual (volunteer) and peripheral blood mononuclear cells were purified and treated with compound A, followed by measurement of change in expression of the gene (mRNA) with the microarray (Human Genome […] plus 2.0 array: Affymetrix).\nFicoll-Paque PLUS solution (Amersham, 17-1440-02) was slowly added to the blood taken (with heparin added) from a healthy individual to form a layer underneath the blood (15 ml of Ficoll-Paque PLUS solution was added to 25 ml of blood). After the mixture was centrifuged at 1500 rpm for 30 min, the upper part containing platelets was removed and then a layer containing mononuclear cells was transferred to another tube. The cells were suspended in PBS and centrifuged at 1500 rpm for 5 min, followed by removal of the supernatant. After these steps were repeated twice, the cells were again suspended in RPMI1640 (containing 10% FBS). The number of the cells was then counted.\nThe cells were suspended in the medium to 5×10^6 cells/ml and plated 1 ml per well of a 24-well plate. Immediately, 111 μl of compound A (ten times more concentrated than the final concentrations) was added to the well (four wells per each concentration tested). The cells were then cultured in an incubator with 5% carbon dioxide gas at 37° C. Two or four hours later, the supernatant was collected and centrifuged at 1500 rpm for five minutes. TRI reagent (SIGMA) (1 ml) was added to each well of the plate from which the supernatant was removed to harvest the cells, which was added to the centrifuged pellet to dissolve. RNA was purified in accordance with the protocol of TRI reagent. RNA was further purified using RNeasy (QIAGEN). Absorbance at 260 nm was measured to quantify an amount of RNA.\nA .cel file for each sample was obtained by using GeneChip Operating Software Ver.1.2 (Affymetrix). The RMA method was applied to ten of the .cel files obtained in the microarray experiment. Log signal intensity at a gene level was obtained by normalization of that at a probe level. By subtracting a control value from log signal intensity for each case, the log signal intensity was converted into a log signal ratio to the control. Genes were narrowed down in the basis of a log signal ratio, and a signal value. Specifically, among genes showing that the P value was 5% or less; the expression level in the untreated (control) is 100 or more by signal value; and the expression level when treated with 10 nM of compound A both for two and four hours decreased by 50% or more, genes of which expression level decreased to 25% or less upon the two-hour treatment were picked out. The software used is R2.2.1 (http://www.r-project.org/), affy package 1.8.1 (http://www.bioconductor.org).\nAmong genes showing, upon the treatment with compound A, that the P value was 5% or less; the expression level in the untreated (control) is 100 or more by signal value; and the expression level when treated with 10 nM of compound A both for two and four hours decreased by 50% or more, genes of which expression level decreased to 25% or less upon the two-hour treatment, and results thereof were shown in Table 2. For each gene evaluated, gene name (Gene Name), abbreviated name (Gene Symbol), accession number (Accession), alias name (Synonym), Probe set number in Human Genome U133 Plus 2.0 Array (Human Genome U133 Plus 2.0 Array Probeset ID), the expression level upon the two-hour treatment with E7107 (E7107 (2 h)), and the expression level upon the four-hour treatment with E7107 (E7107 (4 h)) were respectively shown in Table 2.",
  "data": [
    {"molecule": "CCC(O)C(C)C1OC1CC(C)(O)/C=C/C=C(\\C)C1OC(=O)CC(O)CCC(C)(O)C(OC(=O)N2CCN(C3CCCCCC3)CC2)/C=C/C1C", "note": "(stereo not drawn) [E7107, (8E,12E,14E)-7-((4-Cycloheptylpiperazin-1-yl)carbonyl)oxy-3,6,16,21-tetrahydroxy-6,10,12,16,20-pentamethyl-18,19-epoxytricosa-8,12,14-trien-11-olide]", "values": [
      {"measurement": "AHSA2 mRNA expression level (226665_at)", "setting": "2 h", "result": 0.21},
      {"measurement": "ATXN1 mRNA expression level (242230_at)", "setting": "2 h", "result": 0.25},
      {"measurement": "C13orf31 mRNA expression level (228937_at)", "setting": "2 h", "result": 0.19},
      {"measurement": "C15orf48 mRNA expression level (223484_at)", "setting": "2 h", "result": 0.06},
      {"measurement": "CCRL2//LOC642312 mRNA expression level (211434_s_at)", "setting": "2 h", "result": 0.22},
      {"measurement": "CLEC5A mRNA expression level (219890_at)", "setting": "2 h", "result": 0.08},
      {"measurement": "CSF2RA mRNA expression level (210340_s_at)", "setting": "2 h", "result": 0.10},
      {"measurement": "CTSL1 mRNA expression level (202087_s_at)", "setting": "2 h", "result": 0.21},
      {"measurement": "DHRS9 mRNA expression level (223952_x_at)", "setting": "2 h", "result": 0.25},
      {"measurement": "DOK3 mRNA expression level (223553_s_at)", "setting": "2 h", "result": 0.23},
      {"measurement": "FPRL2 mRNA expression level (230422_at)", "setting": "2 h", "result": 0.06},
      {"measurement": "GNA15 mRNA expression level (205349_at)", "setting": "2 h", "result": 0.22},
      {"measurement": "GPR84 mRNA expression level (223767_at)", "setting": "2 h", "result": 0.18},
      {"measurement": "GTF2H1 mRNA expression level (202451_at)", "setting": "2 h", "result": 0.18},
      {"measurement": "HNRPA2B1 mRNA expression level (225107_at)", "setting": "2 h", "result": 0.23},
      {"measurement": "HPSE mRNA expression level (222881_at)", "setting": "2 h", "result": 0.18},
      {"measurement": "IQCG mRNA expression level (235347_at)", "setting": "2 h", "result": 0.24},
      {"measurement": "LOC51315 mRNA expression level (233329_s_at)", "setting": "2 h", "result": 0.21},
      {"measurement": "MS4A7 mRNA expression level (224358_s_at)", "setting": "2 h", "result": 0.24},
      {"measurement": "NLRP12 mRNA expression level (1554952_s_at)", "setting": "2 h", "result": 0.23},
      {"measurement": "NRIP3 mRNA expression level (219557_s_at)", "setting": "2 h", "result": 0.07},
      {"measurement": "NSMCE4A mRNA expression level (228506_at)", "setting": "2 h", "result": 0.24},
      {"measurement": "OLR1 mRNA expression level (210004_at)", "setting": "2 h", "result": 0.05},
      {"measurement": "RAPH1 mRNA expression level (225188_at)", "setting": "2 h", "result": 0.19},
      {"measurement": "RBBP6 mRNA expression level (212781_at)", "setting": "2 h", "result": 0.23},
      {"measurement": "SLC25A19 mRNA expression level (223222_at)", "setting": "2 h", "result": 0.18},
      {"measurement": "SLC43A2 mRNA expression level (228918_at)", "setting": "2 h", "result": 0.17},
      {"measurement": "TNFAIP6 mRNA expression level (206026_s_at)", "setting": "2 h", "result": 0.19},
      {"measurement": "TNS1 mRNA expression level (221748_s_at)", "setting": "2 h", "result": 0.10},
      {"measurement": "TRAPPC4 mRNA expression level (217959_s_at)", "setting": "2 h", "result": 0.18},
      {"measurement": "Transcribed locus mRNA expression level (230098_at)", "setting": "2 h", "result": 0.22},
      {"measurement": "WSB1 mRNA expression level (201294_s_at)", "setting": "2 h", "result": 0.20},
      {"measurement": "ZCCHC6 mRNA expression level (220933_s_at)", "setting": "2 h", "result": 0.17},
      {"measurement": "AHSA2 mRNA expression level (226665_at)", "setting": "4 h", "result": 0.15},
      {"measurement": "ATXN1 mRNA expression level (242230_at)", "setting": "4 h", "result": 0.24},
      {"measurement": "C13orf31 mRNA expression level (228937_at)", "setting": "4 h", "result": 0.11},
      {"measurement": "C15orf48 mRNA expression level (223484_at)", "setting": "4 h", "result": 0.01},
      {"measurement": "CCRL2//LOC642312 mRNA expression level (211434_s_at)", "setting": "4 h", "result": 0.35},
      {"measurement": "CLEC5A mRNA expression level (219890_at)", "setting": "4 h", "result": 0.05},
      {"measurement": "CSF2RA mRNA expression level (210340_s_at)", "setting": "4 h", "result": 0.06},
      {"measurement": "CTSL1 mRNA expression level (202087_s_at)", "setting": "4 h", "result": 0.13},
      {"measurement": "DHRS9 mRNA expression level (223952_x_at)", "setting": "4 h", "result": 0.31},
      {"measurement": "DOK3 mRNA expression level (223553_s_at)", "setting": "4 h", "result": 0.26},
      {"measurement": "FPRL2 mRNA expression level (230422_at)", "setting": "4 h", "result": 0.04},
      {"measurement": "GNA15 mRNA expression level (205349_at)", "setting": "4 h", "result": 0.15},
      {"measurement": "GPR84 mRNA expression level (223767_at)", "setting": "4 h", "result": 0.20},
      {"measurement": "GTF2H1 mRNA expression level (202451_at)", "setting": "4 h", "result": 0.07},
      {"measurement": "HNRPA2B1 mRNA expression level (225107_at)", "setting": "4 h", "result": 0.20},
      {"measurement": "HPSE mRNA expression level (222881_at)", "setting": "4 h", "result": 0.29},
      {"measurement": "IQCG mRNA expression level (235347_at)", "setting": "4 h", "result": 0.23},
      {"measurement": "LOC51315 mRNA expression level (233329_s_at)", "setting": "4 h", "result": 0.13},
      {"measurement": "MS4A7 mRNA expression level (224358_s_at)", "setting": "4 h", "result": 0.04},
      {"measurement": "NLRP12 mRNA expression level (1554952_s_at)", "setting": "4 h", "result": 0.26},
      {"measurement": "NRIP3 mRNA expression level (219557_s_at)", "setting": "4 h", "result": 0.29},
      {"measurement": "NSMCE4A mRNA expression level (228506_at)", "setting": "4 h", "result": 0.18},
      {"measurement": "OLR1 mRNA expression level (210004_at)", "setting": "4 h", "result": 0.02},
      {"measurement": "RAPH1 mRNA expression level (225188_at)", "setting": "4 h", "result": 0.18},
      {"measurement": "RBBP6 mRNA expression level (212781_at)", "setting": "4 h", "result": 0.17},
      {"measurement": "SLC25A19 mRNA expression level (223222_at)", "setting": "4 h", "result": 0.20},
      {"measurement": "SLC43A2 mRNA expression level (228918_at)", "setting": "4 h", "result": 0.08},
      {"measurement": "TNFAIP6 mRNA expression level (206026_s_at)", "setting": "4 h", "result": 0.06},
      {"measurement": "TNS1 mRNA expression level (221748_s_at)", "setting": "4 h", "result": 0.09},
      {"measurement": "TRAPPC4 mRNA expression level (217959_s_at)", "setting": "4 h", "result": 0.07},
      {"measurement": "Transcribed locus mRNA expression level (230098_at)", "setting": "4 h", "result": 0.14},
      {"measurement": "WSB1 mRNA expression level (201294_s_at)", "setting": "4 h", "result": 0.17},
      {"measurement": "ZCCHC6 mRNA expression level (220933_s_at)", "setting": "4 h", "result": 0.08}
    ]}
  ]
}
